Experimental data from PubChem BioAssay (NCI).
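Protocol summary: plate cells (96-well), add compound at 5 concentrations, incubate 48 h, interpolate endpoints linearly. Definition used: TGI = concentration required for complete inhibition of growth.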

Columns and labels:
Test in all cases: NCI anticancer screen, dose series, 48 h
[1] = tested on: TK-10 renal
[2] = tested on: RPMI-8226 leukemia
[3] = tested on: HCT-116 colon
[4] = tested on: SNB-19 CNS
[5] = tested on: SK-OV-3 ovarian
[6] = tested on: K-562 leukemia
[7] = tested on: SF-295 CNS
[8] = tested on: T-47D breast
[9] = tested on: PC-3 prostate
[10] = tested on: 786-0 renal

| SMILES | TGI [1] [µM] | TGI [2] [µM] | TGI [3] [µM] | TGI [4] [µM] | TGI [5] [µM] | TGI [6] [µM] | TGI [7] [µM] | TGI [8] [µM] | TGI [9] [µM] | TGI [10] [µM] |
| --- | --- | --- | --- | --- | --- | --- | --- | --- | --- | --- |
| COc1ccc(C(=O)c2c(-c3ccccc3NC(=O)C(F)(F)F)[nH]c3ccccc23)cc1 | 24.9 | 27.2 | 25.5 | 21.6 | 32.7 | 32.7 | 25.5 | 9.05 | 17.3 |  |
| C/C=C/c1cc2c(c(=O)o1)C(=O)[C@@H](O)[C@H](C)O2 |  | 34.5 | 20.1 | 46.1 | > 84.4 | > 100 | 41.6 |  |  |  |
| N#CNC(=NCc1ccccc1)NCCc1c[nH]c2ccccc12 | > 100 | > 100 | > 100 | > 100 | > 100 | > 100 | > 100 |  |  | 83.5 |
| O=C(NC12CC3CC(CC(C3)C1)C2)C(=O)c1c[nH]c2ccc(Br)cc12 | 92.6 | > 100 | 45.7 | 95.6 | 60.8 | 47.2 | 19.8 |  |  | 20.5 |
| CC(C(=O)NCCNC(=O)CCC(=O)N(C)O)C(=O)NCCNC(=O)CCC(=O)N(C)O | > 100 | > 100 |  | > 100 | > 100 | > 100 | > 100 | > 100 | > 100 |  |
| CCNC(=O)NNc1ncnc2c1c(-c1ccc(Cl)cc1)cn2-c1ccc(C)cc1 | 81 |  | 28.1 | 34.5 | 73.7 | 46.5 | 30.5 | 49.6 | 38.6 | 32.8 |
| COC(=O)[C@H]1[C@@H](O)[C@@]2(O)c3c(OC)cc(OC)cc3O[C@@]2(c2ccc3c(c2)OCO3)[C@@H]1c1ccccc1 |  | 0.0492 | 0.4 | 0.00512 | 1.54 |  | 0.143 | > 10.8 | > 18 | 0.0944 |
| COc1ccc(C2S/C(=C\c3cccc(OC)c3)C(=O)N2NC(=O)Cc2ccccc2)cc1 (centres undefined) | > 100 | > 100 | > 100 |  | > 100 | > 100 | > 100 |  |  | > 100 |
| COc1cccc2c1C(=O)c1c(O)c3c(c(O)c1C2=O)C[C@@](O)(C(=O)CN1CCOCC1)C[C@@H]3OC1CC(N)C(O)C(C)O1 (some centres undefined) |  | 43.2 | > 100 | > 100 | > 100 | 61.7 | 39.3 |  |  |  |
| COc1ccc(OC)c(NC2=NCCO2)c1 | > 100 | > 100 | > 100 | 22.7 |  | > 100 | > 100 | > 100 | > 100 | > 100 |
| Oc1cc(O)c2c(c1)O[C@H](c1cc(O)c(O)c(O)c1)[C@@H](O)C2 |  | 43.9 | 33.2 | > 100 | 74.7 | 38.2 | 73.2 | 68.7 | 76.2 | 32.8 |
| C=C1C(=O)[C@]23C[C@H]1C[C@@H](O)[C@H]2[C@]1(COC3=O)[C@@H](OC(C)=O)CC[C@@](C)(COC(C)=O)[C@H]1C=O | > 50 |  | > 50 | > 50 |  | 14.1 | > 50 | 25.4 | > 50 | > 50 |
| CCCc1n[nH]c(=O)n1N1C(=O)C=CC1=O | > 100 |  | > 100 |  | > 100 | > 100 | > 100 | > 100 | > 100 | > 100 |
| NC(=O)COc1c(Br)cc(Br)cc1Br |  | > 100 | > 100 | > 100 | > 100 | > 100 | > 100 |  |  | > 100 |
| O=C(/C=C/c1ccc2c(c1)OCO2)NCCc1ccco1 | > 100 | 99.1 | > 100 | > 100 | > 100 | > 100 | > 100 | > 100 | > 100 |  |
| CC(=O)NNC(=S)/N=C\c1c(O)c2ccccc2oc1=O | > 100 | > 100 | > 100 | > 100 |  | > 100 | > 100 | > 100 | > 100 | > 100 |
| COc1ccc(N2CN(C)CSC2=S)cc1 | > 100 | > 100 | > 100 | > 100 | 66.8 | > 100 | 86.2 | > 100 | > 100 |  |
| COC1=CC(=O)C2C(C1=O)[C@@H]1c3ccccc3OC(C)(C)[C@H]21 (some centres undefined) | 38.6 | 72.2 | 29.7 | 97.7 | > 100 | 38.1 | > 100 |  |  | 33.6 |
| C[C@]12C(=O)C=CCC1=CC[C@@H]1[C@@H]2[C@H]2CC3(O)C(=O)O[C@@]4(C)[C@H]5C[C@@]6(C)[C@@H]7[C@@]2(O)[C@]1(OC[C@H]6C(=O)O5)O[C@]734 (some centres undefined) | > 100 | > 100 | > 100 | > 100 |  | > 100 | > 100 |  | > 100 | > 100 |
| O=S(c1ccccc1)C1CC2CC3(CCC21O)OCCO3 (centres undefined) | > 100 | > 100 |  | > 100 | > 100 | > 100 | > 100 | > 100 | > 100 | > 100 |
| Cc1ccc(S(=O)(=O)NC(=O)NCCc2ccc(O)c(O)c2)cc1 | > 100 | > 100 | > 100 | > 100 | > 100 | > 100 | > 100 |  | > 100 | > 100 |
| Brc1c2nc3ccccc3nc2n2ccc3ccccc3c12 | > 100 | > 100 | > 100 | > 100 | > 100 | > 100 |  |  |  | > 100 |
| N=S(=O)(c1ccccc1)c1ccccc1 |  | > 100 | > 100 | > 100 | > 100 | > 100 | > 100 |  |  |  |
